This passage reports IC50 and Ratio results from ChEMBL document CHEMBL1139612 (Bioorg Med Chem Lett, 2005).

Test [1] deals with T1, Adrenergic receptor alpha-1 (Rattus norvegicus, UniProt P15823+P23944+P43140).
T1 sequence (P15823 whole entry): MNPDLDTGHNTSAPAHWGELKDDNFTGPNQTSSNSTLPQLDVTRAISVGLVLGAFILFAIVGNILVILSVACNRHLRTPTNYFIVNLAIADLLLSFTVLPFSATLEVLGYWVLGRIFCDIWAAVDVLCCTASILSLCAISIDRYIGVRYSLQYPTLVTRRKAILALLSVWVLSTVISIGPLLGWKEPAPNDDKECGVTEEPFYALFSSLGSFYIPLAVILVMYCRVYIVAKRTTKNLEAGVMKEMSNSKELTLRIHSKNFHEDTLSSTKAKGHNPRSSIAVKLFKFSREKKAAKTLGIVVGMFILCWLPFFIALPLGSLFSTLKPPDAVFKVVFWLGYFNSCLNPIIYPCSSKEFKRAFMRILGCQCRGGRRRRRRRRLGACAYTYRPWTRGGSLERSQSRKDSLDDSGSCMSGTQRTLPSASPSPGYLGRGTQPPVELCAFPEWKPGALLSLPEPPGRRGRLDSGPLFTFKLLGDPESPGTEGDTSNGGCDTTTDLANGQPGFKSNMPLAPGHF
T1 sequence (P23944 whole entry): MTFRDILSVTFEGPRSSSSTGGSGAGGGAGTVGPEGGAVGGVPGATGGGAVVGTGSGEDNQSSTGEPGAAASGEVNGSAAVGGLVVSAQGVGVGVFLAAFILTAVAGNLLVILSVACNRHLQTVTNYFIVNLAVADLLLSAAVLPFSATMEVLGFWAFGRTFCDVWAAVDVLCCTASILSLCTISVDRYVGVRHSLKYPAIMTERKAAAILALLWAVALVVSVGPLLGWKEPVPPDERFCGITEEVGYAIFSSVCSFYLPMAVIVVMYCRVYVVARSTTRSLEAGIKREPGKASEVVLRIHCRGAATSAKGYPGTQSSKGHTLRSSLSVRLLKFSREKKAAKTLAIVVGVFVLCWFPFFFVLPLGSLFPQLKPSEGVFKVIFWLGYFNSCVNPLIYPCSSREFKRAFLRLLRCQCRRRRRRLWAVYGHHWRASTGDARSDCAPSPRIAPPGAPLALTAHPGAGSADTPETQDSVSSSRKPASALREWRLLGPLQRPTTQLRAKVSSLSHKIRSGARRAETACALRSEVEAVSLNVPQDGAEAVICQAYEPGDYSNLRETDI
T1 sequence (P43140 whole entry): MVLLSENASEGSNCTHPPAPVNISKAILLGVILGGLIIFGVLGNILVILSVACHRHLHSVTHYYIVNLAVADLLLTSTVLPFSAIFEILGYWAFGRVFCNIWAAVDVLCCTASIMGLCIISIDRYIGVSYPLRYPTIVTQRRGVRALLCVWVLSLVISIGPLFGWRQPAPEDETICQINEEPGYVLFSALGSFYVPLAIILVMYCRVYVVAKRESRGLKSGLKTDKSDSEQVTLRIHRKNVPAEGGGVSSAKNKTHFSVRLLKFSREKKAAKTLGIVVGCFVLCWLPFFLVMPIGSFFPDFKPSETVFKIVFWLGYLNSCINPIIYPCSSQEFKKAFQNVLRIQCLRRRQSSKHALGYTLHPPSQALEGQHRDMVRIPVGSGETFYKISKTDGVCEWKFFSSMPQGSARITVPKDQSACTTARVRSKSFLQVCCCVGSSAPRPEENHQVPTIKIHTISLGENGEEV
In words: Inhibitory concentration against Alpha-1 adrenergic receptor in rat cerebral cortex membrane using [3H]prazosin as radioligand. It is filed as cell membranes.

The species entered for the next test is Rattus norvegicus. In words: Ratio of dopamine receptor D2 to that of 5-hydroxytryptamine 1A receptor.
Test [2] addresses Serotonin 1a (5-HT1a) receptor/Adrenergic receptor alpha-1 (Rattus norvegicus) (UniProt P15823+P23944+P43140+P19327). In words: Ratio of alpha-1 adrenergic receptor to that of 5-hydroxytryptamine 1A receptor. The format is protein assay.
Test [3] deals with T2, 5-hydroxytryptamine receptor 1A (Rattus norvegicus, UniProt P19327).
T2 sequence (P19327 whole entry): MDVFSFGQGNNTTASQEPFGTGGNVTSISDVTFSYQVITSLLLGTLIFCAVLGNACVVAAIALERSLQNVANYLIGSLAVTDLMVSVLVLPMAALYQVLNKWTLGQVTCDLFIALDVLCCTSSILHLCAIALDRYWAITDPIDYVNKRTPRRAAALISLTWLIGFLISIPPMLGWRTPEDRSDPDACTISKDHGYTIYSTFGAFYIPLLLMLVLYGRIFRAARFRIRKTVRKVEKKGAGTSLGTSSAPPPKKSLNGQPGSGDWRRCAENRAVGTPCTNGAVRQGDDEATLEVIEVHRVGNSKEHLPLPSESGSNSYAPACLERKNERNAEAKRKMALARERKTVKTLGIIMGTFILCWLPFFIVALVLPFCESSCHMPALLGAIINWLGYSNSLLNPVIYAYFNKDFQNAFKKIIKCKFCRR
In words: Inhibitory concentration against 5-hydroxytryptamine 1A receptor in rat hippocampus membrane using [3H]-8-OH-DPAT as radioligand. It is filed as cell membranes.

Another test has as its target D(2) dopamine receptor (Rattus norvegicus, UniProt P61169). In words: Inhibitory concentration against Dopamine receptor D2 in rat striatum membrane using [3H]raclopride as radioligand. The format is cell membranes.

Sequence of D(2) dopamine receptor (P61169 whole entry): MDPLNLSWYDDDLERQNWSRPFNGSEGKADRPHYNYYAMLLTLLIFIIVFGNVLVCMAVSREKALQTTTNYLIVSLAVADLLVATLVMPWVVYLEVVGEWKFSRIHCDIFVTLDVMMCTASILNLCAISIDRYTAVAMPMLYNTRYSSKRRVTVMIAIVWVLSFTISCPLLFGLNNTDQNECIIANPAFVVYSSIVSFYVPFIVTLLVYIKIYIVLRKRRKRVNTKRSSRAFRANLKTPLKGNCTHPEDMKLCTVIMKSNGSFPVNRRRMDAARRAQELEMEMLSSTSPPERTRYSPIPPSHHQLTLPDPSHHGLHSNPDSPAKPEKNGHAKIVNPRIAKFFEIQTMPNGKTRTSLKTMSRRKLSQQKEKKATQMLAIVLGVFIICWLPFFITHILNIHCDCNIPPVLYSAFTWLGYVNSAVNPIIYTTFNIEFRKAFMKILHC

A word on the IC50: it is the concentration that inhibits the measured activity by half. A low value points to inhibition by little substance. `O=C1c2ccccc2OC=C(Cl)N1CCCCN1CCN(c2ncccn2)CC1` came in with an IC50 in test [1] of 544 nM. Moreover, the values for the Ratio (in the test filed under Rattus norvegicus; in test [2]) were 125 and 342, respectively.

Consider `Cl.O=C1c2ccccc2OC=C(Cl)N1CCCCN1CC=C(c2ncccn2)CC1`, for which the IC50 in test [1] came out at 924 nM. For the same compound, the Ratio in the test listed under Rattus norvegicus amounted to 358; in test [2] it was 670.

In test [1], `O=C1c2ccccc2OC=C(Cl)N1CCCCN1CCN(c2ccccn2)CC1` had an IC50 of 43 nM. Further, the Ratio in the test listed under Rattus norvegicus was determined as 66; in test [2], 56.

For `O=C1c2ccccc2OC=C(Cl)N1CCCCN1CCCC(c2ncccn2)C1` (stereo not given), in test [3], the IC50 was found to be 314 nM.

`Cl.O=C1c2ccccc2OC=C(Cl)N1CCCCN1CCC(O)(c2ncccn2)CC1` displayed an IC50 in test [1] of 9560 nM. In addition, the Ratio in test [2] is 3.6.

`Cl.O=C1c2ccccc2OC=C(Cl)N1CCCCN1CCC(c2ncccn2)CC1` returned an IC50 in test [1] of 2000 nM. Besides, the figures for the Ratio (in the test listed under Rattus norvegicus; in test [2]) were 310 and 344, respectively.

For the compound `O=C(O)/C=C/C(=O)O.O=C1c2ccccc2OC=C(Cl)N1CCCCN1CCC=C(c2ncccn2)C1`, the values for the half-maximal inhibitory concentration (IC50) (in test [1]; in test [3]; at D(2) dopamine receptor) were 384 nM, 79.6 nM and 893 nM, respectively. The Ratio in the test listed under Rattus norvegicus was determined as 11; in test [2] it was 4.8.
